Assay results as given in patent US6967197B2, “Thiazepinyl hydroxamic acid derivatives as matrix metalloproteinase inhibitors” (Fujisawa Pharmaceutical Co., Ltd., priority 2000, dated 2005).

Target: T1, human MMP-9 (Homo sapiens, UniProt P14780)
T1 construct: purchased Yagai, Japan
Experiment: Inhibitory activity of human MMP-9
Type: biochemical
Settings: commercial kit (Yagai, Japan); degradation of FITC-labeled bovine type IV collagen after incubation for 4 hours at 42° C.
Method: Inhibitory Activity of Human MMP-9
The inhibitory activity of test compounds against human MMP-9 were measured by using commercial kits (Yagai, Japan). Gelatinolytic activity was determined by monitoring the degradation of FITC-labeled bovine type IV collagen after incubation for 4 hours at 42° C. The amount of degraded collagen was estimated by measuring the fluorescence intensity at 495 nm (excitation) and 520 nm (emission).
Inhibitory activity of human MMP-9 as mentioned above.

T1 sequence (P14780 94-707): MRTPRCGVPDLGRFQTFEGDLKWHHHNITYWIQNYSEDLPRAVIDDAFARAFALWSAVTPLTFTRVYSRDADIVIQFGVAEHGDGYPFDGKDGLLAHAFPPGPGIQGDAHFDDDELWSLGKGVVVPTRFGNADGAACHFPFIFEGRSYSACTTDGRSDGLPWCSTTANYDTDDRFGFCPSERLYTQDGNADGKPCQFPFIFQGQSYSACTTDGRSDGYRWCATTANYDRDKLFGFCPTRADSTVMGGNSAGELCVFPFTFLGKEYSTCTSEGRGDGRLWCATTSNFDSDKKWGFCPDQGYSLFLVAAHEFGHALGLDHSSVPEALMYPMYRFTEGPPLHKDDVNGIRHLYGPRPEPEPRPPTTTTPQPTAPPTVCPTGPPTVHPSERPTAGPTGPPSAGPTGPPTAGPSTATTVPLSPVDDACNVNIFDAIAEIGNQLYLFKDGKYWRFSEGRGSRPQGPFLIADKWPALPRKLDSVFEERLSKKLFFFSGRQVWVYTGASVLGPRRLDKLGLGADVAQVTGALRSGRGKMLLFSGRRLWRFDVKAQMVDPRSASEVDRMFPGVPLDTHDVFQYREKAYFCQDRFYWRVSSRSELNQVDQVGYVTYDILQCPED

COc1ccc(-c2ccc(C3(CC(=O)NO)CCN(S(C)(=O)=O)CCS3(=O)=O)s2)cc1 (stereo not shown) [Example 17, N-hydroxy-2-[7-(5-(4-methoxyphenyl)-2-thienyl)-4-methanesulfonyl-1,1-dioxoperhydro-1,4-thiazepin-7-yl]acetamide]
IC50: 2.85 nM
